Key:
[1] = 28 days; cited from earlier work
COX-2 = COX-2 expression (H score) by immunohistochemistry, presurgical trial; assay type: in vivo, human; settings: mean ± SD
Experimental: (§1) Assessments similar to those performed at baseline were repeated on the day prior to, or on the morning of surgery. During surgery, breast adipose tissue from the surgical sample was snap frozen and stored at −80° C. for measurement of tamoxifen and metabolites. The samples were obtained from a location adjacent to the DCIS lesion to provide uniformity between participants undergoing breast conservation and mastectomy. The paraffin block of the core and excision samples were acquired by the recruiting institution and 10 sections from each specimen were submitted to the NU Pathology Core Facility. The sections were cut in batches (with pre- and post-treatment samples in the same batch), shipped cold, and processed for immunohistochemistry within four weeks.
(§2) Secondary endpoints were 1) to compare concentrations of tamoxifen and its metabolites [4-OHT, endoxifen, N-desmethyl tamoxifen (NDT)] in breast tissue, plasma and NAF obtained on the day of surgery; 2) to assess changes in known tamoxifenmodulated pathways in the breast (COX-2 and maspin protein expression, [19,20]) and plasma (SHBG, IGF-1 [14]). Side effect endpoints were 1) the incidence of hot flashes at baseline and before surgery; 2) changes in coagulation related proteins in women on the gel and the oral arms from baseline to immediately before surgery.
(§3) Immunohistochemical (IHC) assessment of these markers was performed on paraffin embedded sections of the core and excision specimens, using standard IHC techniques and MCF7, HCT116 and H292 cells as controls. For maspin we used primary mouse monoclonal antibody (Clone-G167-70,BD Pharmingen, San Jose, Calif.), dilution 1:200; for COX-2, primary mouse monoclonal antibody (Clone-CX-294, Dako, Denmark), dilution 1:100-; and for Ki67, primary mouse monoclonal antibody (Clone-MIB-1, Dako, Denmark), dilution 1:100-antigen. Dako Envision Plus system HRP labeled polymer for 20 min at 37° C. was used as the detection system. […] The Ki67 LI was assessed on an average of 300 DCIS cells at 40× magnification. […]

[2] = oral-T vs 4-OHT gel 2 mg daily, 2-3 weeks; cited from earlier work
total protein S = experiment: Plasma total protein S ELISA, presurgical trial; assay type: in vivo, human; settings: mean ± SD
Experimental: (§4) Plasma samples collected with anticoagulant K3-EDTA were used for human IGF-1 and SHBG assays, and coagulation protein assays (factor VIII, factor IX, von Willebrand factor, and protein S)[23]. The human IGF-1 and SHBG assays were performed with Quantikine Enzyme-linked immunosorbent assay (ELISA) Kits (R&D Systems, Cat # DG100 for IGF-1, and Cat # DSHBGO for SHBG assay). The lower limit of detection was 56 pg/ml, and 5 pmol/L; % CV values were 4.3 and 5.6 for IGF-1, and SHBG assay, respectively. Factor VIII, and factor IX were determined with VisuLize™ antigen ELISA kits (Affinity Biologicals Inc.). von Willebrand factor was measured with immune-turbidimetric assay (Diagnostica Stago Inc. Cat #00518) by STAR analyzer, and total protein S was assayed with an ELISA kit (REAADSR Inc.)

maspin = experiment: Maspin expression (H score) by immunohistochemistry, presurgical trial; assay type: in vivo, human; settings: mean ± SD
Experimental: as §1, §2, §3

[3] = BESS quality of life questionnaire and CTCAE adverse events, presurgical trial; assay type: in vivo, human
Description: All participants provided informed consent. Baseline assessments included a history and physical, explanation of gel application, completion of the Breast Cancer Prevention Trial Eight Symptom Scale (BESS) questionnaire, collection of a venous blood sample, and collection of nipple aspirate fluid (NAF) from NAF yielders. […] Treatment began within 5 days post-randomization and ended on the day prior to surgical resection. Participants were instructed to apply the gel to the entire skin envelope of each breast each morning, after a shower. Duration of therapy was 6-10 weeks. Compliance was assessed through participant diaries, counts of returned pills and of returned gel canisters. Participants who took at least 80% of the prescribed dose were considered compliant.
The BESS Questionnaire was repeated at day 15 and at the end of treatment (1 day before surgery or day of surgery), and the post-surgical visit (approximately 7-14 days after surgery).
For continuous variables in the immunochemistry, drug concentration, and blood coagulation data, means and standard deviations are reported; the significance of changes between baseline and post-treatment within groups were evaluated with the paired t-test, and differences between treatment groups assessed using the unpaired t-test. For categorized demographic data, we examined the association of these variables with treatment group via Fisher's exact test. For the analysis of quality of life, the 33 symptoms in the BESS Questionnaire were divided into eight clusters as described by Cella et. al.. The mean score within each cluster was used to evaluate significance of changes from baseline to posttreatment within groups as well as the differences between treatment groups using the Wilcoxon signed-rank test.

SHBG = experiment: Plasma SHBG ELISA, presurgical trial; assay type: in vivo, human; settings: mean ± SD
Experimental: as §4

SMILES: CC/C(=C(\c1ccccc1)c1ccc(OCCN(C)C)cc1)c1ccccc1 [Tamoxifen, (Z)-tamoxifen]
- ENX concentration in serum, oral TAM 1 mg daily [1]: 3 ng/mL
- ENX concentration in serum, oral TAM 5 mg daily [1]: 9 ng/mL
- ENX concentration in serum, oral TAM 20 mg daily [1]: 38 ng/mL
- ENX concentration in tumor tissue, oral TAM 1 mg daily [1]: 31 ng/g
- ENX concentration in tumor tissue, oral TAM 5 mg daily [1]: 80 ng/g
- ENX concentration in tumor tissue, oral TAM 20 mg daily [1]: 340 ng/g
- COX-2 post-treatment (COX-2; DCIS lesions after 6-10 weeks): 78.9 ± 63.5 H-score
- COX-2 baseline (COX-2; DCIS lesions before treatment): 67.2 ± 72.4 H-score
- COX-2 Changes from baseline (COX-2; DCIS lesions, 6-10 weeks): 11.7 ± 109.8 H-score
- median 4-OHT concentration in nontumor breast tissue (previous study) [2]: 2.0 ng/g
- % Total Protein S post-treatment (total protein S; plasma after 6-10 weeks): 91.6 ± 12.2%
- % Total Protein S baseline (total protein S; plasma before treatment): 94.3 ± 8.9%
- % Total Protein S Changes from baseline (total protein S; plasma): −2.7 ± 9.3%
- Maspin post-treatment (maspin; DCIS lesions after 6-10 weeks): 142 ± 69 H-score
- Maspin baseline (maspin; DCIS lesions before treatment): 107 ± 56 H-score
- Maspin Changes from baseline (maspin; DCIS lesions, 6-10 weeks): 35 ± 71 H-score
- BESS Vasomotor symptom cluster, baseline ([3]; hot flashes, night sweats, cold sweats, mean score ± SD): 0.33 ± 0.45
- BESS Bladder symptom cluster, Changes from baseline ([3]; mean score ± SD): 0.11 ± 0.49
- BESS Bladder symptom cluster, baseline ([3]; mean score ± SD): 0.14 ± 0.36
- BESS Bladder symptom cluster, post-treatment ([3]; mean score ± SD): 0.25 ± 0.33
- BESS Body Image symptom cluster, Changes from baseline ([3]; mean score ± SD): −0.04 ± 0.87
- BESS Body Image symptom cluster, baseline ([3]; mean score ± SD): 0.68 ± 0.77
- BESS Body Image symptom cluster, post-treatment ([3]; mean score ± SD): 0.64 ± 0.89
- BESS Body pain symptom cluster, Changes from baseline ([3]; mean score ± SD): 0.43 ± 0.92
- BESS Body pain symptom cluster, baseline ([3]; mean score ± SD): 0.76 ± 1.12
- BESS Body pain symptom cluster, post-treatment ([3]; mean score ± SD): 1.19 ± 1.11
- BESS Cognitive symptom cluster, Changes from baseline ([3]; mean score ± SD): 0.10 ± 0.86
- BESS Cognitive symptom cluster, baseline ([3]; mean score ± SD): 0.62 ± 0.61
- BESS Cognitive symptom cluster, post-treatment ([3]; mean score ± SD): 0.71 ± 1.18
- BESS Gastrointestinal symptom cluster, Changes from baseline ([3]; mean score ± SD): −0.10 ± 0.24
- BESS Gastrointestinal symptom cluster, baseline ([3]; mean score ± SD): 0.12 ± 0.31
- BESS Gastrointestinal symptom cluster, post-treatment ([3]; mean score ± SD): 0.02 ± 0.09
- BESS Sexual problems symptom cluster, Changes from baseline ([3]; mean score ± SD): −0.21 ± 0.54
- BESS Sexual problems symptom cluster, baseline ([3]; mean score ± SD): 0.32 ± 0.72
- BESS Sexual problems symptom cluster, post-treatment ([3]; mean score ± SD): 0.11 ± 0.40
- BESS Vaginal symptom cluster, Changes from baseline ([3]; mean score ± SD): 0.07 ± 0.19
- BESS Vaginal symptom cluster, baseline ([3]; mean score ± SD): 0.00 ± 0.00
- BESS Vaginal symptom cluster, post-treatment ([3]; mean score ± SD): 0.07 ± 0.19
- BESS Vasomotor symptom cluster, Changes from baseline ([3]; mean score ± SD): 0.55 ± 1.05
- BESS Vasomotor symptom cluster, post-treatment ([3]; mean score ± SD): 0.88 ± 1.26
- BESS Vaginal symptom cluster, baseline ([3]; mean score ± SD, listed as oral-T): 0.00
- serious adverse events (CTCAE) ([3]; whole study): no serious adverse events
- SHBG post-treatment (SHBG; plasma after 6-10 weeks): 143.9 ± 69.0 ng/mL
- SHBG baseline (SHBG; plasma before treatment): 98.4 ± 45.0 ng/mL
- SHBG Changes from baseline (SHBG; plasma): 45.5 ± 40.2 ng/mL
